Consider 14 compounds from DBAASP.

Common to all, as to assay: ≥ marks a high value that may be exact or a test limit, other limits are often not marked, values filed in µg/mL are converted to µM
For assay [1], the system named is Staphylococcus epidermidis ATCC 12228.
The subject of assay [2] is Escherichia coli ATCC 25922.
Assay [3] concerns Staphylococcus aureus ATCC 29213.
The subject of assay [4] is Candida albicans ATCC 90028.
The test system of assay [5] is Pseudomonas aeruginosa ATCC 27853.
For assay [6], the system named is Staphylococcus aureus ATCC 43300.
Assay [7] relates to Escherichia coli.
The test system of assay [8] is Bacillus subtilis.
Assay [9] concerns Escherichia coli UB1005.
Assay [10] concerns Pseudomonas aeruginosa PAO1.
Assay [11] has as its system Staphylococcus aureus ATCC 25923.
Assay [12] has as its system Klebsiella pneumoniae ATCC 700603.

SMILES strings stand for the structures. ≈ marks a conversion by molar mass, not a printed value.

On to `CC(C)C[C@H](NC(=O)[C@H](Cc1ccc(O)cc1)NC(=O)[C@H](Cc1ccc(O)cc1)NC(=O)CNC(=O)[C@H](Cc1c[nH]c2ccccc12)NC(=O)[C@H](CO)NC(=O)[C@H](CO)NC(=O)[C@H](Cc1c[nH]c2ccccc12)NC(=O)[C@H](CC(C)C)NC(=O)[C@H](CCCCN)NC(=O)[C@@H](NC(=O)[C@@H](NC(=O)[C@H](CC(C)C)NC(=O)[C@@H](N)CC(=O)O)[C@@H](C)O)[C@@H](C)O)C(=O)NCC(=O)O` [DLTTKLWSSWGYYLG], for which, in assay [1], the minimum inhibitory concentration (MIC) came out at 25 µM (≈ 44.8 µg/mL).
`CC[C@H](C)[C@H](NC(=O)[C@H](C)NC(=O)[C@H](CCC(N)=O)NC(=O)[C@@H](NC(=O)[C@@H](NC(=O)[C@H](CCCN=C(N)N)NC(=O)[C@@H](N)CCCCN)[C@@H](C)CC)C(C)C)C(=O)N[C@@H](CCCCN)C(=O)N[C@@H](CC(=O)O)C(=O)N[C@@H](Cc1ccccc1)C(=O)N[C@@H](CC(C)C)C(=O)N[C@@H](CCCN=C(N)N)C(=O)O` [KRIVQAIKDFLR]: the MIC in assay [2] was 40 µM (≈ 59.5 µg/mL); in [3], 40 µM (≈ 59.5 µg/mL); in assay [4], no less than 40 µM; in assay [5] it was 40 µM (≈ 59.5 µg/mL).
Take `CC(C)C[C@H](NC(=O)[C@H](CCCCN)NC(=O)CN)C(=O)N[C@@H](Cc1c[nH]c2ccccc12)C(=O)N[C@@H](CC(C)C)C(=O)N[C@@H](CCCCN)C(=O)NCC(=O)NCC(=O)N[C@@H](CCCCN)C(=O)N[C@@H](CC(C)C)C(=O)N[C@@H](Cc1c[nH]c2ccccc12)C(=O)N[C@@H](CC(C)C)C(=O)N[C@@H](CCCCN)C(=O)NCC(=O)NCC(=O)N[C@@H](CCCCN)C(=O)N[C@@H](CC(C)C)C(=O)N[C@@H](Cc1c[nH]c2ccccc12)C(=O)N[C@@H](CC(C)C)C(=O)N[C@@H](CCCCN)C(=O)NCC(N)=O` [GKLWLKGGKLWLKGGKLWLKG]: the minimal inhibitory concentration (MIC) in assay [6] was 32 µM (≈ 75.7 µg/mL).
Consider `CC[C@H](C)[C@H](N)C(=O)N[C@@H](CC(N)=O)C(=O)N[C@@H](Cc1c[nH]c2ccccc12)C(=O)N[C@@H](CCCCN)C(=O)N[C@@H](CCCCN)C(=O)N[C@H](C(=O)N[C@@H](Cc1ccccc1)C(=O)N[C@@H](CCC(N)=O)C(=O)N[C@@H](CCCCN)C(=O)N[C@H](C(=O)N[C@@H](CCCCN)C(=O)N[C@@H](CC(N)=O)C(=O)N[C@@H](CC(C)C)C(=O)N[C@H](C(N)=O)C(C)C)C(C)C)[C@@H](C)CC` [INWKKIFQKVKNLV], for which the figures for the MIC in [7] and in [8] were 8 µM (≈ 14.1 µg/mL) and no less than 45 µM, respectively.
For `CC[C@H](C)[C@H](N)C(=O)N[C@@H](CC(N)=O)C(=O)N[C@@H](Cc1c[nH]c2ccccc12)C(=O)N[C@@H](CCCCN)C(=O)N[C@@H](CCCCN)C(=O)N[C@@H](CC(C)C)C(=O)NCC(=O)N[C@@H](CCCCN)C(=O)N[C@@H](CCCCN)C(=O)N[C@H](C(=O)N[C@@H](CC(C)C)C(=O)NCC(=O)N[C@@H](C)C(=O)N[C@@H](CC(C)C)C(N)=O)[C@@H](C)CC` [INWKKLGKKILGAL] the same measures were 43 µM (≈ 68 µg/mL) and 15.5 µM (≈ 24.5 µg/mL).
For `CC(C)C[C@H](NC(=O)[C@H](Cc1ccc(O)cc1)NC(=O)[C@@H]1CCCN1C(=O)[C@@H]1CCCN1C(=O)[C@H](CCCCN)NC(=O)[C@H](CCCN=C(N)N)NC(=O)[C@@H](N)C(C)C)C(=O)N1CCC[C@H]1C(=O)N[C@@H](CCCN=C(N)N)C(=O)N1CCC[C@H]1C(=O)N[C@@H](CCCN=C(N)N)C(=O)N[C@@H](Cc1c[nH]c2ccccc12)C(=O)N1CCC[C@H]1C(=O)N[C@@H](CCCN=C(N)N)C(=O)N[C@@H](CCCN=C(N)N)C(=O)N[C@@H](Cc1ccccc1)C(=O)N[C@@H](Cc1ccc(O)cc1)C(=O)N[C@@H](CC(N)=O)C(=O)N[C@@H](CCCN=C(N)N)C(N)=O` [VRKPPYLPRPRWPRRFYNR], the figures for the MIC in assay [9], in assay [10] and in assay [11] were 0.979 µM (≈ 2.5 µg/mL), 3.13 µM (≈ 8 µg/mL) and 0.391 µM (≈ 1 µg/mL), respectively.
As for `CC(C)C[C@H](NC(=O)[C@H](CCCCN)NC(=O)[C@H](C)N)C(=O)N[C@@H](Cc1c[nH]c2ccccc12)C(=O)N[C@@H](CC(C)C)C(=O)N[C@@H](CCCCN)C(=O)N[C@@H](C)C(=O)N[C@@H](C)C(=O)N[C@@H](CCCCN)C(=O)N[C@@H](CC(C)C)C(=O)N[C@@H](Cc1c[nH]c2ccccc12)C(=O)N[C@@H](CC(C)C)C(=O)N[C@@H](CCCCN)C(=O)N[C@@H](C)C(N)=O` [AKLWLKAAKLWLKA], in [6], the minimum inhibitory concentration (MIC) is 16 µM (≈ 26.2 µg/mL).
For `CC[C@H](C)[C@H](NC(=O)[C@H](CCCN=C(N)N)NC(=O)[C@H](CCCN=C(N)N)NC(=O)[C@@H]1CCCN1C(=O)[C@H](Cc1ccc(O)cc1)NC(=O)[C@H](CCCN=C(N)N)NC(=O)[C@@H]1CCCN1C(=O)[C@H](CCCN=C(N)N)NC(=O)[C@@H]1CCCN1C(=O)[C@H](CC(C)C)NC(=O)[C@H](Cc1ccc(O)cc1)NC(=O)[C@@H]1CCCN1C(=O)[C@@H]1CCCN1C(=O)[C@H](CCCCN)NC(=O)[C@H](CC(=O)O)NC(=O)[C@@H](N)C(C)C)C(=O)N[C@@H](Cc1ccc(O)cc1)C(=O)N[C@@H](CC(N)=O)C(=O)N[C@@H](CCCN=C(N)N)C(N)=O` [VDKPPYLPRPRYPRRIYNR], the minimal inhibitory concentration (MIC) in assay [9] amounted to 2.04 µM (≈ 5 µg/mL); in assay [10], 52.1 µM (≈ 128 µg/mL); in assay [11] it was 13 µM (≈ 32 µg/mL).
For `CC[C@H](C)[C@H](NC(=O)[C@@H](NC(=O)[C@@H]1CCCN1C(=O)[C@@H](NC(=O)[C@@H]1CCCN1C(=O)[C@H](CCCCN)NC(=O)[C@H](CCCCN)NC(=O)[C@H](CO)NC(=O)CN)C(C)C)[C@@H](C)CC)C(=O)N[C@@H](Cc1ccc(O)cc1)C(=O)N[C@H]1CSSC[C@@H](C(=O)N[C@@H](CCC(N)=O)C(=O)N[C@@H](CCCN=C(N)N)C(=O)N[C@@H](CCSC)C(=O)O)NC(=O)[C@H](CCCCN)NC(=O)CNC(=O)[C@H]([C@@H](C)O)NC(=O)[C@H](CCCN=C(N)N)NC(=O)[C@H](CCCN=C(N)N)NC(=O)[C@H](CCC(N)=O)NC1=O` [GSKKPVPIIYCQRRTGKCQRM], the minimum inhibitory concentration (MIC) in assay [2] came out at 1.63 µM (≈ 4 µg/mL); in assay [12], 3.27 µM (≈ 7.99 µg/mL).
For the compound `CC[C@H](C)[C@H](NC(=O)[C@H](CO)NC(=O)[C@H](C)NC(=O)[C@@H](NC(=O)[C@@H](N)CCCCN)[C@@H](C)CC)C(=O)NCC(=O)N[C@@H](CCCCN)C(=O)N[C@@H](CCC(=O)O)C(=O)N[C@H](C(=O)N[C@@H](CC(C)C)C(=O)N[C@@H](CCCCN)C(=O)N[C@@H](C)C(=O)N[C@@H](CC(C)C)C(N)=O)C(C)C` [KIASIGKEVLKAL], the figures for the minimum inhibitory concentration (MIC) in [7] and in [8] were 100 µM (≈ 137 µg/mL) and no less than 100 µM, respectively.
For `CC[C@H](C)[C@H](N)C(=O)N[C@@H](CC(N)=O)C(=O)N[C@@H](Cc1c[nH]c2ccccc12)C(=O)N[C@@H](CC(C)C)C(=O)N[C@@H](CCCCN)C(=O)N[C@@H](CC(C)C)C(=O)NCC(=O)N[C@@H](CCCCN)C(=O)N[C@@H](CCCCN)C(=O)N[C@@H](CCSC)C(=O)N[C@@H](CCSC)C(=O)N[C@@H](CO)C(=O)N[C@@H](C)C(=O)N[C@@H](CC(C)C)C(=O)O` [INWLKLGKKMMSAL] the same measures were 100 µM (≈ 163 µg/mL) and 22.5 µM (≈ 36.7 µg/mL).
Regarding `CC[C@H](C)[C@H](N)C(=O)N[C@@H](Cc1c[nH]c2ccccc12)C(=O)N[C@@H](CCCN=C(N)N)C(=O)N[C@H](C(=O)N[C@@H](Cc1ccccc1)C(=O)N[C@@H](CCCN=C(N)N)C(=O)N[C@@H](CCCN=C(N)N)C(=O)N[C@H](C(=O)N[C@@H](Cc1ccccc1)C(=O)N[C@@H](CCCN=C(N)N)C(=O)N[C@H](C(=O)N[C@@H](Cc1ccccc1)C(=O)N[C@H](C(=O)N[C@@H](CCCN=C(N)N)C(=O)N[C@@H](Cc1ccccc1)C(N)=O)[C@@H](C)CC)[C@@H](C)CC)[C@@H](C)CC)[C@@H](C)CC` [IWRIFRRIFRIFIRF], the minimum inhibitory concentration (MIC) came out at 16 µM (≈ 34.2 µg/mL) in [2], 4 µM (≈ 8.55 µg/mL) in [1], 8 µM (≈ 17.1 µg/mL) in assay [3] and 16 µM (≈ 34.2 µg/mL) in assay [5].
`CC[C@H](C)[C@H](NC(=O)[C@H](CCCN=C(N)N)NC(=O)[C@H](CCCN=C(N)N)NC(=O)[C@@H]1CCCN1C(=O)[C@H](CCCN=C(N)N)NC(=O)[C@H](CCCN=C(N)N)NC(=O)[C@@H]1CCCN1C(=O)[C@H](CCCN=C(N)N)NC(=O)[C@@H]1CCCN1C(=O)[C@H](CC(C)C)NC(=O)[C@H](Cc1ccc(O)cc1)NC(=O)[C@@H]1CCCN1C(=O)[C@@H]1CCCN1C(=O)[C@H](CCCCN)NC(=O)[C@H](CC(=O)O)NC(=O)[C@@H](N)C(C)C)C(=O)N[C@@H](Cc1ccc(O)cc1)C(=O)N[C@@H](CC(N)=O)C(=O)N[C@@H](CCCN=C(N)N)C(N)=O` [VDKPPYLPRPRRPRRIYNR]: the MIC was 1.02 µM (≈ 2.5 µg/mL) in [9], 52.2 µM (≈ 128 µg/mL) in assay [10] and 13.1 µM (≈ 32 µg/mL) in assay [11].
Take `CC[C@H](C)[C@H](NC(=O)[C@H](CCCN=C(N)N)NC(=O)[C@H](CCC(N)=O)NC(=O)[C@@H](NC(=O)[C@@H](NC(=O)[C@H](CCCN=C(N)N)NC(=O)[C@H](C)N)[C@@H](C)CC)C(C)C)C(=O)N[C@@H](CCCCN)C(=O)N[C@@H](CC(=O)O)C(=O)N[C@@H](Cc1ccccc1)C(=O)N[C@@H](CC(C)C)C(=O)N[C@@H](CCCN=C(N)N)C(=O)O` [ARIVQRIKDFLR]: the minimum inhibitory concentration (MIC) in [2] is 40 µM (≈ 60.6 µg/mL); in assay [3], 40 µM (≈ 60.6 µg/mL); in [4], no less than 40 µM; in [5] it was 40 µM (≈ 60.6 µg/mL).
